Measurements reported in paper PMC10144323, “Preparation and Bioevaluation of a Novel ^99mTc-Labeled Glucose Derivative Containing Cyclohexane as a Promising Tumor Imaging Agent” (Pharmaceuticals, 2023).
Where two headings read alike, the source gives them in different places.

What was measured:
A549 tumor cells = test: In vitro cellular uptake studies; assay type: cell-based, Human; details: glucose-free DMEM, 1 h uptake
Protocol: Human alveolar basal epithelial cells from lung cancer cells (A549 cells) were used in in vitro cellular uptake studies. A549 cells in the logarithmic growth phase were collected, prepared in a cell suspension of 3 × 10^5 cells/mL DMEM medium, and seeded into a 24-well plate (1 mL/well). The cells were evenly dispersed in the holes by vibration. Afterwards, the well plate was placed in a 37 °C incubator with 5% CO2 overnight to enable the cells to grow and stick to the bottom of the wells. After the cells were attached to the wells, the medium in the well plate was aspirated and washed with 0.5 mL of glucose-free DMEM medium, followed by the addition of 0.5 mL of glucose-free DMEM for glucose deprivation. One hour later, 0.1 mL of glucose-free medium, D-glucose (2 mg), L-glucose (2 mg) and insulin (2 IU) were added to the wells, respectively, and the cells were preincubated for 15 min. Subsequently, 0.1 mL of [^99mTc]Tc-CNMCHDG complex solution (0.74 MBq) was added to each well, and the volume of the solution in the wells was made up to 1 mL using the glucose-free DMEM. The well plates continued to be incubated in a 37 °C incubator, and after 1 h, the medium was aspirated and washed twice with 0.5 mL of cold PBS solution (0.067 M, pH 7.4). The cells were lysed by adding 0.5 mL of a sodium hydroxide solution (1 M). Finally, the solution was transferred to plastic test tubes, and the radioactivity counts were measured using a γ-counter detector. This procedure was carried out four times for each group.

[1] = Pharmacokinetic characteristics (blood time-activity); assay type: in vivo; details: healthy Kunming female mice
Protocol: Drug and Statistics (DAS) 3.2.8 software was used to calculate the pharmacokinetic parameters and to study the relationship between drug concentration and time based on the results. Time-activity curve of blood of [^99mTc]Tc-CNMCHDG in healthy kunming female mice was shown in Figure 6 and major pharmacokinetics parameters are listed in Table 1. […] In addition, the blood intake values were all lower than 0.1%ID/g at 90 min post-injection. According to the calculation results of the DAS 3.2.8 software, the distribution of [^99mTc]Tc-CNMCHDG in the blood was in accordance with the three-compartment mode.
Forty Kunming female mice were divided into eight groups and injected with 0.1 mL of [^99mTc]Tc-CNMCHDG (0.37 MBq) via tail vein, and were sacrificed at 2, 5, 10, 30, 60, 90, 120 and 240 min after injection, respectively. The blood samples were collected, weighed and counted a γ-counter detector to calculate the%ID/g value. The blood uptake-time curves were generated and analyzed by DAS 3.2.8 software.

[2] = Determination of the partition coefficient (log P); assay type: physicochemical; details: n-octanol / phosphate buffer (0.025 M, pH 7.4)
Protocol: To determine the partition coefficient, 1.4 mL of phosphate buffer (0.025 M, pH 7.4) and 1.5 mL of n-octanol was taken into a 5 mL centrifuge tube, to which 0.1 mL of the [^99mTc]Tc-CNMCHDG solution (2.4 MBq) was added into the centrifuge tube in turn. The solution was then vortexed for 3 min and centrifuged for 3 min (3000 r/min). Then, 0.1 mL was removed from the two phases with a pipette gun, respectively, and the radioactive counts of the two phases were measured and used to calculate the partition coefficient P. The final partition coefficient was expressed as log P ± SD.

S180 tumor-bearing mice = test: Biodistribution in S180 tumor-bearing mice with pre-treatment (uptake mechanism); assay type: in vivo, female Kunming mice
Protocol: (§1) Animal studies were performed according to the Regulation on Laboratory Animals of the Beijing Municipality and the guidelines of the Ethics Committee of Beijing Normal University (permit no. BNUCC-EAW-2022-001). The A549 tumor-bearing model mice were developed by injecting 2 × 10^6 A549 cells in 0.1 mL of F-12k medium subcutaneously into the armpit of the right upper limb of balb/c nude mice. Similarly, the S180 tumor-bearing model mice were developed by subcutaneously injecting 1 × 10^6 S180 cells in 0.1 mL of saline into the right upper limb of female Kunming mice. The biodistribution of the tumor-bearing mice was determined when the tumor grew to approximately 5 mm after about two weeks of feeding. The A549 tumor mice were injected with 0.1 mL of the radiolabeled [^99mTc]Tc-CNMCHDG or [^99mTc]Tc-CN7DG solution (0.37 MBq) through the tail vein and sacrificed after 30 and 120 min post-injection (n = 3). In addition, to test whether the [^99mTc]Tc-CNMCHDG complex was involved in the glucose transporter mechanism, saline (0.1 mL), 2-deoxy-D-glucose (6 mg per mouse) and insulin (0.25 units per mouse) were injected into S180 tumor mice half an hour before administering the radiolabeled complex, and the mice were sacrificed at 60 min post-injection (n = 5). The organs and tissues of interest, such as heart, liver, lung, kidney, spleen, stomach, bone, intestine and tumor, were dissected, wiped and weighed. Finally, the radioactivity count in these organs and tissues was measured using a γ-counter detector, and the final results were expressed as the percent uptake of injected dose per gram ± the standard deviation (%ID/g ± SD).

[3] = In vitro stability in saline (radio-HPLC radiochemical purity); assay type: physicochemical; details: 4 h in saline at room temperature
Protocol: (§2) The in vitro stability of the [^99mTc]Tc-CNMCHDG complex was determined by measuring its radiochemical purity. The labeled [^99mTc]Tc-CNMCHDG complex solution was placed in saline at room temperature for 4 h, and the radiochemical purity of the complex was calculated using radio-HPLC data to determine whether the complex had good stability at room temperature. Then, 100 μL of labeled solution (1.8 MBq) and 200 μL of mouse serum were added to a centrifuge tube, and the tube was placed in an incubator at 37 °C for 4 h. At the end of the incubation, 600 μL of an acetonitrile solvent was added to the centrifuge tube. Subsequently, the supernatant was filtered through a 0.22-μm filter and taken for HPLC analysis after centrifugation.

A549 tumor-bearing mice [4] = test: SPECT/CT imaging studies; assay type: in vivo
Protocol: The radiolabeled [^99mTc]Tc-CNMCHDG solution (18.5 MBq) was injected into the A549 tumor-bearing mice via the tail vein, and the SPECT imaging study was performed at 2 h post-injection. In the same tumor mice, at the end of radioactive metabolism, the [^99mTc]Tc-CN7DG solution (18.5 MBq) was injected similarly into the same mice through the tail vein. The mice were anesthetized with 1.5% isoflurane and placed on a SPECT/CT scanner for imaging. The imaging scan settings were as follows: CT scan (512 views, 2 × 2 binding, 75 kV) for 15 min, followed by SPECT acquisition (Peak 140 keV, 20% width, 90° rotation, MMP 919 collimator) after 4 min. HiSPECT software and Vivoquant 2.5 software (Trifoil imaging, CA, USA) were used to acquire the SPECT/CT images (n = 3).

A549 tumor-bearing mice [5] = test: Biodistribution in A549 tumor-bearing mice; assay type: in vivo, balb/c nude mice; details: for tumor uptake: i.v., n = 3
Protocol: as §1

[6] = In vitro stability in mouse serum (radio-HPLC radiochemical purity); assay type: in vitro ADME; details: 4 h in mouse serum at 37 °C
Protocol: as §2

[7] = blood, three-compartmental modeling (DAS 3.2.8), i.v.
[8] = blood, three-compartmental modeling, i.v.
[9] = S180 tumor-bearing mice, 60 min post-injection

Question: With O=C(NC1C(O)OC(CO)C(O)C1O)C1CCC(C[N+]#[C][99Tc+]([C]#[N+]CC2CCC(C(=O)NC3C(O)OC(CO)C(O)C3O)CC2)([C]#[N+]CC2CCC(C(=O)NC3C(O)OC(CO)C(O)C3O)CC2)([C]#[N+]CC2CCC(C(=O)NC3C(O)OC(CO)C(O)C3O)CC2)([C]#[N+]CC2CCC(C(=O)NC3C(O)OC(CO)C(O)C3O)CC2)[C]#[N+]CC2CCC(C(=O)NC3C(O)OC(CO)C(O)C3O)CC2)CC1 (centres unmarked) [[^99mTc]Tc-CNMCHDG] as the compound, how does the “inhibition of cellular uptake by D-glucose” value (A549 tumor cells; D-glucose (2 mg) preincubated 15 min, p = 0.009) read?
Answer: Its value is 29%.

Question: And the “change of cellular uptake by L-glucose” value (A549 tumor cells; L-glucose (2 mg) preincubated 15 min)?
Answer: The value was “not significantly changed”.

Question: And the “increase of cellular uptake after insulin” value (A549 tumor cells; insulin (2 IU) preincubated 15 min, p = 0.002)?
Answer: Its value is 57%.

Question: What about the “AUC(0-t)” value [1, 7] of the same compound?
Answer: The value was 298.528 %ID/g × min.

Question: And the “AUC(0-∞)” value [1, 7]?
Answer: Its value is 353.484 %ID/g × min.

Question: What about the “t1/2α (blood distribution half-life)” value [1, 8] of the same compound?
Answer: Its value is 0.598 min.

Question: What about the “t1/2β (elimination half-life, fast chamber)” value [1, 8] of the same compound?
Answer: Its value is 10.706 min.

Question: What about the “t1/2γ (elimination half-life, slow chamber)” value [1, 8] of the same compound?
Answer: The value was 218.932 min.

Question: And the blood uptake value ([1]; 2 min post-injection, i.v., n = 5)?
Answer: The blood uptake value was 21.22 ± 2.00 %ID/g.

Question: What about the blood uptake value ([1]; 30 min post-injection) of the same compound?
Answer: The blood uptake value was 1.50 ± 0.15 %ID/g.

Question: What about the blood uptake value ([1]; 60 min post-injection) of the same compound?
Answer: Its blood uptake value is 0.37 ± 0.16 %ID/g.

Question: And the blood intake values ([1]; at 90 min post-injection)?
Answer: Its blood intake values is “lower than 0.1 %ID/g”.

Question: What about the “partition coefficient (log P)” value [2] of the same compound?
Answer: The value was −3.65 ± 0.10.

Question: What about the tumor uptake (S180 tumor-bearing mice) of the same compound?
Answer: Its tumor uptake is 6.30 ± 0.56 %ID/g.

Question: What about the “decrease of tumor uptake by D-glucose pre-treatment” value (S180 tumor-bearing mice; [9]) of the same compound?
Answer: Its value is 43%.

Question: And the “increase of tumor uptake by insulin pre-treatment” value (S180 tumor-bearing mice; [9])?
Answer: The value was 35%.

Question: And the tumor uptake (S180 tumor-bearing mice; S180 tumor-bearing mice, 60 min post-injection, pre-treatment with D-glucose, n = 5)?
Answer: The tumor uptake was 2.64 ± 0.48 %ID/g.

Question: And the tumor uptake (S180 tumor-bearing mice; S180 tumor-bearing mice, 60 min post-injection, saline pre-treatment (control), n = 5)?
Answer: The tumor uptake was 4.66 ± 0.34 %ID/g.

Question: What about the “radiochemical purity after incubation” value [3] of the same compound?
Answer: The value was “higher than 90%”.

Question: What about the “route of metabolism/excretion in vivo (SPECT/CT signals in bladder and kidney)” value (A549 tumor-bearing mice [4]; A549 tumor-bearing mouse, 2 h after administration) of the same compound?
Answer: Its value is “mainly metabolized through the urine system”.

Question: And the “visualization of the tumor by SPECT/CT” value (A549 tumor-bearing mice [4]; A549 tumor-bearing mouse, 2 h after administration, 18.5 MBq i.v.)?
Answer: The value was “clearly visualized”.

Question: What about the “SPECT/CT uptake in non-target areas (liver and kidney) compared to [^99mTc]Tc-CN7DG” value (A549 tumor-bearing mice [4]; same A549 tumor-bearing mouse, 2 h post-injection) of the same compound?
Answer: The value was “significantly lower”.

Question: And the kidney uptake (A549 tumor-bearing mice [5]; 30 min post-injection)?
Answer: The kidney uptake was 6.54 ± 1.10 %ID/g.

Question: And the liver uptake (A549 tumor-bearing mice [5]; 30 min post-injection)?
Answer: Its liver uptake is 2.74 ± 0.31 %ID/g.

Question: And the lung uptake (A549 tumor-bearing mice [5]; 30 min post-injection)?
Answer: The lung uptake was 1.98 ± 0.31 %ID/g.

Question: And the tumor uptake (A549 tumor-bearing mice [5]; 30 min post-injection)?
Answer: The tumor uptake was 5.40 ± 0.29 %ID/g.

Question: What about the “tumor uptake compared to [^99mTc]Tc-CN7DG” value (A549 tumor-bearing mice [5]; 120 min post-injection) of the same compound?
Answer: Its value is “slightly lower”.

Question: What about the tumor/liver ratio (A549 tumor-bearing mice [5]; 120 min post-injection) of the same compound?
Answer: The tumor/liver ratio was 3.24 ± 0.25.

Question: What about the tumor/lung ratio (A549 tumor-bearing mice [5]; 120 min post-injection) of the same compound?
Answer: Its tumor/lung ratio is 5.41 ± 0.39.

Question: And the “uptake in non-target organs such as liver and lung compared to [^99mTc]Tc-CN7DG” value (A549 tumor-bearing mice [5]; 120 min post-injection)?
Answer: Its value is “significantly lower”.

Question: And the tumor uptake (A549 tumor-bearing mice [5]; 120 min post-injection)?
Answer: The tumor uptake was 4.42 ± 0.36 %ID/g.

Question: And the “radiochemical purity after incubation” value [6]?
Answer: Its value is “higher than 90%”.
